# Source: patent publication US20050107343A1, “Pyrrolopyrimidines and related analogs as HSP90-inhibitors” (Conforma Therapeutics Corporation, priority 2003, published 2005)
# Columns and labels:
# [1] = tested on: MCF7 breast carcinoma cells; experiment: MTS assay; assay type: cell-based; details: Homo sapiens, 50% reduction in viable cell number
# Experimental: MTS assays measure the cytotoxicity of geldanamycin derivatives. MTS (3-(4,5-dimethylthiazol-2-yl)-5-(3-carboxymethoxyphenyl)-2-(4-sulfophenyl)-2H-tetrazolium) is a tetrazolium dye that is converted to a formazan product by dehydrogenase enzymes of metabolically active cells (Corey, A. et al. “Use of an aqueous soluble tetrazolium/formazan assay for cell growth assays in culture,” Cancer Commun. 1991, 3, 207-212). Cells were seeded in 96 well plates at 2000 cells/well and allowed to adhere overnight in Dulbecco's modified Eagle's medium supplemented with 10% fetal bovine serum. The final culture volume was 100 μl. Viable cell number was determined by using the Celltiter 96 AQueous Non-radioactive Cell Proliferation Assay (Promega, Madison Wis.). The MTS /PMS (phenazine methosulfate) solution was mixed at a ratio of 20:1, and 20 μL was added per well to 100 μl of culture medium. After 2-4 hours, the formation of the formazan product was measured at 490 nm absorbance using a multiwell plate spectrophotometer. Background was determined by measuring the Abs 490 nm of cell culture medium and MTS-PMS in the absence of cells and was subtracted from all values. Percent viable cells was calculated as follows: % viable cells=(Abs at 490 nm treated cells/Abs at 490 nm untreated cells)×100
# The effect of selected compounds of the invention on MCF7 breast carcinoma cells according to the MTS assay is summarized in Table 2. IC50 was defined as the concentration of the compound which gave rise to 50% reduction in viable cell number.
# HER2/Neu protein = experiment: HER2 degradation assay; assay type: cell-based; details: Homo sapiens; 50% degradation of HER2/Neu protein, MCF7 cells, 16 h
# Experimental: MCF7 breast carcinoma cells (ATCC) were grown in Dulbecco's modified Eagle's medium (DMEM) containing 10% fetal bovine serum (FBS) and 10 mM HEPES, and plated in 24 well plates (50% confluent). Twenty-four hrs later (cells are 65-70% confluent), test compounds were added and incubated overnight for 16 h. […] The wells were washed with 1 mL phosphate buffered saline (PBS), and 200 μL trypsin was added to each well. After trypsinization was complete, 50 μL of FBS was added to each well. Then 200 μL cells was transferred to 96 well plates. The cells were pipetted up and down to obtain a single cell suspension. The plates were centrifuged at 2,500 rpm for 1 min using a Sorvall Legend RT™ tabletop centrifuge (Kendro Laboratory Products, Asheville, N.C.). The cells were then washed once in PBS containing 0.2% BSA and 0.2% sodium azide (BA buffer). Phycoerythrin (PE) conjugated anti HER2/Neu antibody (Becton Dickinson, #340552), or PE conjugated anti-keyhole limpet hemocyanin [KLH] (Becton Dickinson, #340761) control antibody was added at a dilution of 1:20 and 1:40 respectively (final concentration was 1 μg/mL) and the cells were pipeted up and down to form a single cell suspension, and incubated for 15 mins. The cells were washed twice with 200 μL BA buffer, and resuspended in 200 μL BA buffer, and transferred to FACSCAN tubes with an additional 250 μL BA buffer. Samples were analyzed using a FACSCalibur™ flow cytometer (Becton Dickinson, San Jose, Calif.) equipped with Argon-ion laser that emits 15 mW of 488 nm light for excitation of the PE fluorochrome. 10,000 events were collected per sample. A fluorescence histogram was generated and the mean fluorescence intensity (MFI) of each sample was determined using Celiquest software. The background was defined as the MFI generated from cells incubated with control IgG-PE, and was subtracted from each sample stained with the HER2/Neu antibody. Cells incubated with DMSO were used as untreated controls since the compounds were resuspended in DMSO. Percent degradation of HER2 was calculated as follows: % HER2 degraded=[(MF1 untreated cells−MF1 treated cells)/MF1 untreated cell]×100
# IC50 is defined as the concentration at which there was 50% degradation of the HER2/Neu protein.
# [2] = tested on: rHSP90 in the MCF7 cell lysates; experiment: Cell lysate binding assay; details: 50% inhibition of biotin-GM binding to rHSP90 in MCF7 cell lysates
# Experimental: Cell Lysate Binding Assay
# MCF7 breast carcinoma cell lysates were prepared by douncing in lysing buffer (20 mM HEPES, pH 7.3, 1 mM EDTA, 5 mM MgCl2, 100 mM KCl), and then incubated with or without test compound for 30 mins at 4° C., followed by incubation with biotin-GM linked to BioMag™ streptavidin magnetic beads (Qiagen) for 1 hr at 4° C. The tubes were placed on a magnetic rack, and the unbound supernatant removed. The magnetic beads were washed three times in lysis buffer and boiled for 5 mins at 95° C. in SDS-PAGE sample buffer. Samples were analyzed on SDS protein gels, and Western blots were done for rHSP90. Bands in the Western Blots were quantitated using the Bio-rad Fluor-S MultiImager, and the % inhibition of binding of rHSP90 to the biotin-GM was calculated.
# The IC50 reported is the concentration of test compound needed to achieve 50% inhibition of the biotin-GM binding to rHSP90 in the MCF7 cell lysates.
SMILES,IC50 [1],IC50 (HER2/Neu protein),IC50 [2]
"COc1c(C)c[n+]([O-])c(Cn2ccc3c(Cl)nc(N)nc32)c1C [Example 8, 4-Chloro-7-(4-methoxy-3,5-dimethyl-1-oxy-pyridin-2-ylmethyl)-7H-pyrrolo[2,3-d]pyrimidin-2-ylamine]",100 nM,23 nM,–
COc1c(C)cnc(CN2C(=O)Cc3c(Cl)nc(N)nc32)c1C,–,450 nM,–
"Cc1cnc(Cn2ccc3c(Cl)nc(N)nc32)c(C)c1Br [Example 13, 7-(4-Bromo-3,5-dimethyl-pyridin-2-ylmethyl)-4-chloro-7H-pyrrolo[2,3-d]pyrimidin-2-ylamine]",1000 nM,50 nM,90 nM
"COc1c(C)cnc(Cn2ccc3c(Cl)nc(N)nc32)c1C [Example 5, 4-Chloro-7-(4-methoxy-3,5-dimethyl-pyridin-2-ylmethyl)-7H-pyrrolo[2,3-d]pyrimidin-2-ylamine]",300 nM,95 nM,150 nM
"COc1c(C)c(Cl)nc(Cn2ccc3c(Cl)nc(N)nc32)c1C [Example 10, 4-Chloro-7-(6-chloro-4-methoxy-3,5-dimethyl-pyridin-2-ylmethyl)-7H-pyrrolo [2,3-d]pyrimidin-2-ylamine]",600 nM,250 nM,–
"Cc1cnc(Cn2ccc3c(Cl)nc(N)nc32)c(C)c1Cl [Example 11, 4-Chloro-7-(4-chloro-3,5-dimethyl-pyridin-2-ylmethyl)-7H-pyrrolo[2,3-d]pyrimidin-2-ylamine]",200 nM,80 nM,90 nM
"Cc1c[n+]([O-])c(Cn2ccc3c(Cl)nc(N)nc32)c(C)c1Br [Example 15, 7-(4-Bromo-3,5-dimethyl-1-oxy-pyridin-2-ylmethyl)-4-chloro-7H-pyrrolo[2,3-d]pyrimidin-2-ylamine]",23 nM,15 nM,30 nM
"Cc1c[n+]([O-])c(Cn2ccc3c(Cl)nc(N)nc32)c(C)c1Cl [Example 14, 4-Chloro-7-(4-chloro-3,5-dimethyl-1-oxy-pyridin-2-ylmethyl)-7H-pyrrolo[2,3-d]pyrimidin-2-ylamine]",1000 nM,38 nM,50 nM

# Other lines, results leading:
IC50 [1],IC50 (HER2/Neu protein),IC50 [2],SMILES
300 nM,25 nM,–,"Cc1c[n+]([O-])c(Cn2ccc3c(Br)nc(N)nc32)c(C)c1Br [Example 24, 4-Bromo-7-(4-bromo-3,5-dimethyl-1-oxy-pyridin-2-ylmethyl)-7H-pyrrolo[2,3-d]pyrimidin-2-ylamine]"
–,1500 nM,–,"Cc1cnc(CN2C(=O)Cc3c(Cl)nc(N)nc32)c(C)c1Cl [Example 48, 2-Amino-4-chloro-7-(4-chloro-3,5-dimethyl-pyridin-2-ylmethyl)-5,7-dihydro-pyrrolo[2,3-d]pyrimidin-6-one]"
> 10000 nM,150 nM,–,"COc1c(C)cnc(Cn2ccc3c(Br)nc(N)nc32)c1C [Example 25, 4-Bromo-7-(4-methoxy-3,5-dimethyl-pyridin-2-ylmethyl)-7H-pyrrolo[2,3-d]pyrimidin-2-ylamine]"
1000 nM,42 nM,–,"COc1c(C)c[n+]([O-])c(Cn2ccc3c(Br)nc(N)nc32)c1C [Example 20, 4-Bromo-7-(4-methoxy-3,5-dimethyl-1-oxy-pyridin-2-ylmethyl)-7H-pyrrolo[2,3-d]pyrimidin-2-ylamine]"
–,20 nM,–,Cc1c[n+]([O-])c(Cn2cc(C(C)C)c3c(Cl)nc(N)nc32)c(C)c1Cl [Example 45]
1000 nM,65 nM,–,"Cc1c[n+]([O-])c(Cn2ccc3c(Br)nc(N)nc32)c(C)c1Cl [Example 22, 4-Bromo-7-(4-chloro-3,5-dimethyl-1-oxy-pyridin-2-ylmethyl)-7H-pyrrolo[2,3-d]pyrimidin-2-ylamine]"
900 nM,180 nM,–,"COc1c(C)c[n+]([O-])c(CN2C(=O)Cc3c(Cl)nc(N)nc32)c1C [Example 49, 2-Amino-4-chloro-7-(3,5-dimethyl-4-methoxy-1-oxy-pyridin-2-ylmethyl)-5,7-dihydro-pyrrolo[2,3-d]pyrimidin-6-one]"
10000 nM,400 nM,–,"COc1cc(CN2C(=O)Cc3c(Cl)nc(N)nc32)c(Br)c(OC)c1OC [Example 52, 2-Amino-4-chloro-7-(2-bromo-3,4,5-trimethoxy-benzyl)-5,7-dihydro-pyrrolo[2,3-d]pyrimidin-6-one]"
> 10000 nM,170 nM,–,"Cc1cnc(Cn2ccc3c(Br)nc(N)nc32)c(C)c1Cl [Example 21, 4-Bromo-7-(4-chloro-3,5-dimethyl-pyridin-2-ylmethyl)-7H-pyrrolo[2,3-d]pyrimidin-2-ylamine]"
> 10000 nM,130 nM,–,"Cc1cnc(Cn2ccc3c(Br)nc(N)nc32)c(C)c1Br [Example 23, 4-Bromo-7-(4-bromo-3,5-dimethyl-pyridin-2-ylmethyl)-7H-pyrrolo[2,3-d]pyrimidin-2-ylamine]"
–,130 nM,–,"COc1c(C)cnc(Cn2cc(C(C)C)c3c(Cl)nc(N)nc32)c1C [Example 43, 4-Chloro-5-isopropyl-7-(4-methoxy-3,5-dimethyl-pyridin-2-ylmethyl)-7H-pyrrolo[2,3-d]pyrimidin-2-ylamine]"
